Experiments:
human H3 receptor = biological target: T1, human H3 receptor (Homo sapiens, UniProt Q9Y5N1); assay: H3 receptor binding (N-[3H]-α-methylhistamine displacement); conditions: membranes of SK-N-MC cells expressing cloned human H3 receptor, 0.8 nM N-[3H]-α-methylhistamine, 60 min at 25° C.
T1 construct: expressed in transfected cells
Method: Briefly, cell pellets from SK-N-MC cells expressing the human H3 receptor were homogenized in 50 mM Tris-HCl/5 mM EDTA and re-centrifuged at 30,000 g for 30 min. Pellets were re-homogenized in 50 mM Tris/6 mM EDTA (pH 7.4). Membranes were incubated with 0.8 nM N-[^3H]-α-methylhistamine plus/minus test compounds for 60 min at 25° C. and harvested by rapid filtration over GF/C glass fiber filters (pretreated with 0.3% polyethylenimine) followed by four washes with ice-cold buffer. Nonspecific binding was defined in the presence of 10 μM histamine.

Rat SERT = biological target: T2, Rat SERT (Rattus norvegicus, UniProt P31652); assay: Rat brain SERT binding ([3H]-citalopram displacement); conditions: rat brain membranes without cerebellum, 0.6 nM [3H]-citalopram, 60 min at 25° C.; read-out: Rat SERT Ki
T2 construct: A rat brain without cerebellum (Zivic Laboratories, Inc.—Pittsburgh, Pa.) was homogenized; tissue Zivic Laboratories, Inc; host or cells: rat brain without cerebellum, membranes
T2 sequence (P31652 whole entry): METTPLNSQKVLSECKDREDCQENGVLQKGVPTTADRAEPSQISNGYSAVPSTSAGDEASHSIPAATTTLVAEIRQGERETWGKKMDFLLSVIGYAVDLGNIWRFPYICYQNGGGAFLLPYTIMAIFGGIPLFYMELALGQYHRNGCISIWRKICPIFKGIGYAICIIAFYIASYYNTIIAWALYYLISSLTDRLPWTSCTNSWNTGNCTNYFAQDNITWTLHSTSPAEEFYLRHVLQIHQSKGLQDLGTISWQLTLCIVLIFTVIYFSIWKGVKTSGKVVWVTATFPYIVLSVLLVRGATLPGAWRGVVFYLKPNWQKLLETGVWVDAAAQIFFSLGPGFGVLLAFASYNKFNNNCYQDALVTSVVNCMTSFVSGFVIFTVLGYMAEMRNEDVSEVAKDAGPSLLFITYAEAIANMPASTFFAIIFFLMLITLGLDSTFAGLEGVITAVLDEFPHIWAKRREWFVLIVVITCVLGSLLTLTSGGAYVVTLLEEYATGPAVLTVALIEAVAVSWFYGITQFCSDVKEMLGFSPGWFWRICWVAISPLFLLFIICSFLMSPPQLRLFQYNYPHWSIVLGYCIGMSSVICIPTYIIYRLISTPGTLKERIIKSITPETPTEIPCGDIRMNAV
Method: The supernatant was removed and re-centrifuged at 15,000 rpm for 30 min. […] Membranes were incubated with 0.6 nM [^3H]-Citalopram plus/minus test compounds for 60 min at 25° C. and harvested by rapid filtration over GF/C glass fiber filters (pretreated with 0.3% polyethylenimine) followed by four washes with ice-cold buffer.

T1 sequence (Q9Y5N1 whole entry): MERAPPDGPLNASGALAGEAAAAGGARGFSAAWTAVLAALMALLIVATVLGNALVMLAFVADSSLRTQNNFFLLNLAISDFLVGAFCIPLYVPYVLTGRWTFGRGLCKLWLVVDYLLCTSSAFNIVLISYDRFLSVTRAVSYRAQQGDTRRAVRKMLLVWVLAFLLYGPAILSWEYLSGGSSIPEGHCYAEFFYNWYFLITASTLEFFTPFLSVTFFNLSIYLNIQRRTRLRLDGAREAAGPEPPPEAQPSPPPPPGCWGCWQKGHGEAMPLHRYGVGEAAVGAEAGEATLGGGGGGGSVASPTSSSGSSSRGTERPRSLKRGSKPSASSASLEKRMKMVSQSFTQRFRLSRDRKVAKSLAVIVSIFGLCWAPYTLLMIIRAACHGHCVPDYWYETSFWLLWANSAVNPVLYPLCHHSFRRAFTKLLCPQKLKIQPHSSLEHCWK

| Ki (human H3 receptor) | Ki (Rat SERT) | Structure (SMILES) |
| --- | --- | --- |
| 6 nM | 1 nM | COc1ccc(C2CN(C)Cc3cc(OCCCN4CCOC[C@@H]4CO)ccc32)cc1 (mixture of isomers) [Example 183A, (4-{3-[4-(4-Methoxy-phenyl)-2-methyl-1,2,3,4-tetrahydro-isoquinolin-7-yloxy)-propyl}-morpholin-3S-yl)-methanol] |
| 7 nM | 2000 nM | COc1ccc(C2CN(C(C)c3ccccc3)Cc3cc(OCCCN4CCOCC4)ccc32)cc1 (single isomer, unassigned) [Example 75A, 4-(4-Methoxy-phenyl)-7-(3-morpholin-4-yl-propoxy)-2-(1-phenyl-ethyl)-1,2,3,4-tetrahydro-isoquinoline] |
| 3 nM | 2 nM | COc1ccc(C2CN(C)Cc3cc(OCCC4CCCN4C)ccc32)cc1 (single isomer, unassigned) [Example 240A, 4-(4-Methoxy-phenyl)-2-methyl-7-[2-(1-methyl-pyrrolidin-2-yl)-ethoxy]-1,2,3,4-tetrahydro-isoquinoline] |
| 21 nM | 5 nM | COc1ccc(C2CN(C)Cc3cc(OCCC4CCCN4C)ccc32)cc1 (single isomer, unassigned) [Example 240B, 4-(4-Methoxy-phenyl)-2-methyl-7-[2-(1-methyl-pyrrolidin-2-yl)-ethoxy]-1,2,3,4-tetrahydro-isoquinoline] |
| 29 nM | 26 nM | COc1ccc(C2CN(C)Cc3cc(OC[C@@H]4CN(C5CC5)CCO4)ccc32)cc1 (single isomer, unassigned) [Example 260B, 7-(4-Cyclopropyl-morpholin-2S-ylmethoxy)-4-(4-methoxy-phenyl)-2-methyl-1,2,3,4-tetrahydro-isoquinoline] |
| 73 nM | 32 nM | COc1ccc(C2CN(C)Cc3cc(OC[C@H]4CN(C5CC5)CCO4)ccc32)cc1 (single isomer, unassigned) [Example 261A, 7-(4-Cyclopropyl-morpholin-2R-ylmethoxy)-4-(4-methoxy-phenyl)-2-methyl-1,2,3,4-tetrahydro-isoquinoline] |
| 64 nM | 17 nM | COc1ccc(C2CN(C)Cc3cc(OC[C@H]4CN(C5CC5)CCO4)ccc32)cc1 (single isomer, unassigned) [Example 261B, 7-(4-Cyclopropyl-morpholin-2R-ylmethoxy)-4-(4-methoxy-phenyl)-2-methyl-1,2,3,4-tetrahydro-isoquinoline] |

Second part, the molecule before the results:

| Structure (SMILES) | Ki (human H3 receptor) | Ki (Rat SERT) |
| --- | --- | --- |
| COc1ccc(C2CN(C)Cc3cc(OCCC4CCCN4C)ccc32)cc1 (mixture of isomers) [Example 240, 4-(4-Methoxy-phenyl)-2-methyl-7-[2-(1-methyl-pyrrolidin-2-yl)-ethoxy]-1,2,3,4-tetrahydro-isoquinoline] | 4 nM | 3 nM |
| COc1ccc(C2CN(C)Cc3cc(OCC4CN(C)CCO4)ccc32)cc1 (mixture of isomers) [Example 251, 4-(4-Methoxy-phenyl)-2-methyl-7-(4-methyl-morpholin-2-ylmethoxy)-1,2,3,4-tetrahydro-isoquinoline] | 67 nM | 12 nM |
| COc1ccc(C2CN(C)Cc3cc(OCC4CN(CCF)CCO4)ccc32)cc1 (mixture of isomers) [Example 258, 7-[4-(2-Fluoro-ethyl)-morpholin-2-ylmethoxy]-4-(4-methoxy-phenyl)-2-methyl-1,2,3,4-tetrahydro-isoquinoline] | 32 nM | 8 nM |
| COc1ccc(C2CN(C)Cc3cc(OC[C@H]4CN(C5CC5)CCO4)ccc32)cc1 (mixture of isomers) [Example 261, 7-(4-Cyclopropyl-morpholin-2R-ylmethoxy)-4-(4-methoxy-phenyl)-2-methyl-1,2,3,4-tetrahydro-isoquinoline] | 62 nM | 32 nM |
| CSc1ccc(C2CN(C)Cc3cc(OCC4CNCCO4)ccc32)cc1 (mixture of isomers) [Example 264, 2-Methyl-4-(4-methylsulfanyl-phenyl)-7-(morpholin-2-ylmethoxy)-1,2,3,4-tetrahydro-isoquinoline] | 3250 nM | 6 nM |
| COc1ccc(C2CN(C)Cc3cc(OCCCN4CCC(F)CC4)ccc32)c(F)c1 (racemic) [Example 139, 4-(2-Fluoro-4-methoxy-phenyl)-7-[3-(4-fluoro-piperidin-1-yl)-propoxy]-2-methyl-1,2,3,4-tetrahydro-isoquinoline] |  | 6 nM |
| COc1ccc(C2CN(C)Cc3cc(OC[C@@H]4CN(C(C)C)CCO4)ccc32)cc1 (mixture of isomers) [Example 255, 7-(4-Isopropyl-morpholin-2S-ylmethoxy)-4-(4-methoxy-phenyl)-2-methyl-1,2,3,4-tetrahydro-isoquinoline] | 2 nM | 16 nM |
| COc1ccc(C2CN(C)Cc3cc(OC[C@@H]4CN(C5CC5)CCO4)ccc32)cc1 (mixture of isomers) [Example 260, 7-(4-Cyclopropyl-morpholin-2S-ylmethoxy)-4-(4-methoxy-phenyl)-2-methyl-1,2,3,4-tetrahydro-isoquinoline] | 3 nM | 29 nM |
| COc1ccc(C2CN([C@H](C)c3ccccc3)Cc3cc(OCCCN4CCOCC4)ccc32)cc1 (single isomer, unassigned) [Example 75, 4-(4-Methoxy-phenyl)-7-(3-morpholin-4-yl-propoxy)-2-(1-phenyl-ethyl)-1,2,3,4-tetrahydro-isoquinoline] | 14 nM | 79 nM |
| COc1ccc(C2CN(C)Cc3cc(OCCCN4CCC(F)CC4)ccc32)c(F)c1 (single isomer, unassigned) [Example 140, 4-(2-Fluoro-4-methoxy-phenyl)-7-[3-(4-fluoro-piperidin-1-yl)-propoxy]-2-methyl-1,2,3,4-tetrahydro-isoquinoline] |  | 28 nM |
| COc1ccc(C2CN(C)Cc3cc(OCCCN4CCC(F)CC4)ccc32)c(F)c1 (single isomer, unassigned) [Example 141, 4-(2-Fluoro-4-methoxy-phenyl)-7-[3-(4-fluoro-piperidin-1-yl)-propoxy]-2-methyl-1,2,3,4-tetrahydro-isoquinoline] |  | 3 nM |
| COc1ccc(C2CN(C)Cc3cc(OCCCN4CCC(F)CC4)ccc32)cc1F (single isomer, unassigned) [Example 143, 4-(3-Fluoro-4-methoxy-phenyl)-7-[3-(4-fluoro-piperidin-1-yl)-propoxy]-2-methyl-1,2,3,4-tetrahydro-isoquinoline] | 4 nM | 18 nM |
| COc1ccc(C2CN(C)Cc3cc(OCCCN4CCC(F)CC4)ccc32)cc1F (single isomer, unassigned) [Example 144, 4-(3-Fluoro-4-methoxy-phenyl)-7-[3-(4-fluoro-piperidin-1-yl)-propoxy]-2-methyl-1,2,3,4-tetrahydro-isoquinoline] | 6 nM | 5 nM |
| COc1ccc(C2CN(C)Cc3cc(OCCCN=C4N(C)CCCN4C)ccc32)cc1 (stereo not shown) [Example 15, (1,3-Dimethyl-tetrahydro-pyrimidin-2-ylidene)-{3-[4-(4-methoxy-phenyl)-2-methyl-1,2,3,4-tetrahydro-isoquinolin-7-yloxy]-propyl}-amine] | 499 nM | 11 nM |
| COc1ccc(C2CN(C)Cc3cc(OCCCN4Cc5ccccc5C4)ccc32)cc1 (stereo not shown) [Example 16, 7-[3-(1,3-Dihydro-isoindol-2-yl)-propoxy]-4-(4-methoxy-phenyl)-2-methyl-1,2,3,4-tetrahydro-isoquinoline] | 25 nM | 6 nM |
| COc1ccc(C2CN(C)Cc3cc(OCCCN4C=NCCC4)ccc32)cc1 (stereo not shown) [Example 18, 7-[3-(5,6-Dihydro-4H-pyrimidin-1-yl)-propoxy]-4-(4-methoxy-phenyl)-2-methyl-1,2,3,4-tetrahydro-isoquinoline] | 74 nM | 1 nM |
| COc1ccc(C2CN(C)Cc3cc(OCCCN(C)c4nc5ccccc5s4)ccc32)cc1 (stereo not shown) [Example 19, Benzothiazol-2-yl-{3-[4-(4-methoxy-phenyl)-2-methyl-1,2,3,4-tetrahydro-isoquinolin-7-yloxy]-propyl}-methyl-amine] | 2000 nM | 8 nM |
| COc1ccc(C2CN(C)Cc3cc(OCCCN4CCS(=O)(=O)CC4)ccc32)cc1 (stereo not shown) [Example 27, 7-[3-(1,1-Dioxo-1λ^6-thiomorpholin-4-yl)-propoxy]-4-(4-methoxy-phenyl)-2-methyl-1,2,3,4-tetrahydro-isoquinoline] | 104 nM | 3 nM |
| COc1ccc(C2CN(C)Cc3cc(OCCCN4CCC[C@H]4C(F)(F)F)ccc32)cc1 (stereo partly drawn) [Example 28, 4-(4-Methoxy-phenyl)-2-methyl-7-[3-((2S)-trifluoromethyl-pyrrolidin-1-yl)-propoxy]-1,2,3,4-tetrahydro-isoquinoline] | 140 nM | 12 nM |
| CCOC(=O)C1CCN(CCCOc2ccc3c(c2)CN(C)CC3c2ccc(OC)cc2)CC1 (stereo not shown) [Example 33, 1-{3-[4-(4-Methoxy-phenyl)-2-methyl-1,2,3,4-tetrahydro-isoquinolin-7-yloxy]-propyl}-piperidine-4-carboxylic acid ethyl ester] | 172 nM | 5 nM |
| COc1ccc(C2CN(C)Cc3cc(OCC4CCN(C(C)C)CC4)ccc32)c(F)c1 (stereo not shown) [Example 90, 4-(2-Fluoro-4-methoxy-phenyl)-7-(1-isopropyl-piperidin-4-ylmethoxy)-2-methyl-1,2,3,4-tetrahydro-isoquinoline] |  | 9 nM |

Reference: patent US20060194837A1, “Tetrahydroisoquinoline compounds” (priority 2004, published 2006)
